Laboratory results from patent US20210353681A1, “USE OF TNKS INHIBITORS FOR REGENERATION OF CARTILAGE” (SEOUL NATIONAL UNIVERSITY R&DB FOUNDATION, priority 2020, published 2021).

Key:
[1] = test system: primary cultured mouse chondrocytes; assay: mRNA and protein levels of cartilage-specific matrix genes in primary cultured mouse chondrocytes; assay type: cell-based; conditions: for expression of cartilage-specific matrix genes: chondrocytes treated with drugs, mRNA and protein levels (FIG. 1f, g)
Procedure: Primary culture of mouse articular chondrocytes. For the primary culture of mouse articular chondrocytes, cells were isolated from femoral condyles and tibial plateaus of 4-5-day-old ICR mice, as described previously^83. Chondrocytes were maintained in DMEM supplemented with 10% fetal bovine serum (FBS), 100 units/ml penicillin, and 100 μg/ml streptomycin, and cells were treated as indicated in each experiment. Transfection was performed with […] PRO (Biontex) according to the manufacturer's protocol. All siRNAs, including negative control siRNA, were purchased from Bioneer. Recombinant mouse Wnt-3a (315-20) was purchased from PeproTech, and recombinant mouse Dkk-1 (5897-DK) was purchased from R&D Systems.
RT-PCR and qPCR. Total RNAs were extracted using TRI reagent (Molecular Research Center, Inc.). RNAs were reverse transcribed using EasyScript Reverse Transcriptase (Transgen Biotech). Then, cDNA was amplified by PCR or qPCR with the primers listed in Table 2. qPCR was performed with SYBR TOPreal qPCR 2× preMIX (Enzynomics) to determine transcript abundance. Transcript quantity was calculated using the ΔΔCt method, and Hprt or HPRT1 levels were used as housekeeping controls. The log 2 (fold change) value of the cartilage stromal gene of mouse articular chondrocytes treated with siRNA was clustered using a hierarchical clustering algorithm (mean association and central correlation distance) in 1.0.4 R package. PCA was performed using the same R package.
Whole-cell lysate preparation. Whole-cell lysates were prepared in RIPA buffer (150 mM NaCl, 1% NP-40, 50 mM Tris, pH 8.0, 0.5% sodium deoxycholate, 0.1% SDS) supplemented with a protease inhibitor cocktail (Sigma-Aldrich).

[2] = test system: mouse limb-bud mesenchymal cells; assay: Mouse limb-bud micromass culture, Alcian Blue staining; assay type: cell-based; conditions: micromass cultures, treated 3 days
Procedure: Mouse limb-bud micromass culture. For the micromass culture of mesenchymal cells, limb-bud cells were isolated from E11.5 ICR mouse embryos. 2.0×10^7 cells/ml were suspended in DMEM supplemented with 10% FBS, 100 units/ml penicillin, and 100 μg/ml streptomycin, and 15-μ1 drops were spotted on culture dishes. After 24 h, cells were treated as indicated for 3 days and subjected to Alcian Blue staining.

mouse chondrocytes = assay: RNA sequencing and gene set enrichment analysis of treated chondrocytes; assay type: cell-based; conditions: drugs 10 μM for 108 h vs vehicle; siRNAs vs control siRNA
Procedure: RNA sequencing (RNA-seq). Primary cultured mouse articular chondrocytes were treated with DMSO or 10 μM of XAV939 or IWR-1 for 108 h or transfected with control siRNA or Tnks and Tnks2 siRNAs. Three biological replicates were used for each group. One microgram of high-quality RNA samples (RIN>7.0) were used to construct RNA-seq libraries with the TruSeq Stranded mRNA Library Prep kit (Illumina). Libraries were validated with an Agilent 2100 Bioanalyzer. RNA-seq was performed on an Illumina HiSeq 2500 sequencer at Macrogen. The sequence reads were trimmed with Trimmomatic^86 and mapped against the mouse reference genome (mm10) using TopHat. Read counts per gene were calculated using HTSeq^88. Differential expression analysis was conducted using the DESeq2 R package^89. DEGs were selected using a |fold change| cutoff of >3 and a FDR q cutoff of <1×10^−5. DEGs at least one condition were clustered with hierarchical clustering algorithm (ward.D linkage with euclidean distance) using gplots R package. GO analysis was conducted using Enrichr^90. Heatmaps of DEGs that are in the cartilage-signature gene set or the osteoarthritis-signature gene sets were drawn with Gitools.
GSEA analysis. Genes were ranked according to the shrunken log2 fold change calculated via DESeq2. […]

[3] = test system: articular cartilage of DMM-operated mouse; assay: Experimental OA in mice (DMM surgery), intra-articular hydrogel drug delivery; assay type: in vivo; conditions: for degeneration of cartilage matrix caused by DMM (Safranin O staining, OARSI grade): IA administration in hydrogel, 10 nmol drug
Procedure: Preparation of hydrogels and in vivo confirmation of controlled release of embedded molecules. 6-O-Palmitoyl-l-ascorbic acid (76183) was purchased from Sigma-Aldrich. […] PBS-suspended hydrogel (10 μl, PBS:hydrogel=1:1) containing 50 pmol DiD was administered intra-articularly, and at 1-9 days post-injection, light-emitting diode (LED) and fluorescence images of knee joints were obtained. LuminoGraph II (Atto) was used to acquire the images.
Experimental OA in mice. Eight-week-old male ICR mice were used for experimental OA. Experimental OA was induced by DMM (Destabilization of the medial meniscus) surgery on the right hindlimb, and sham surgery was conducted on the left hindlimb as a control (Glasson, S. S., Blanchet, T. J. & Morris, E. A. The surgical destabilization of the medial meniscus (DMM) model of osteoarthritis in the 129/SvEv mouse. Osteoarthritis Cartilage 15, 1061-1069, doi:10.1016/j.joca.2007.03.006 (2007)). 10 μl of PBS-suspended hydrogel (PBS:hydrogel=1:1) containing vehicle or 10 nmol drugs was administered intra-articularly.
Histology and immunohistochemistry. Mouse and rat knee joint samples and human cartilage samples were fixed with 4% paraformaldehyde overnight at 4° C. All samples were […] for 2-4 weeks 0.5M EDTA, pH 7.4 at 4° C. and embedded in paraffin. Mouse and rat paraffin blocks were sectioned at a thickness of 6 μm, and human paraffin blocks were sectioned to a thickness of 5 μm. […] Cartilage regeneration in osteochondral defect model was scored according to the International Cartilage Repair Society (ICRS) scoring system (Haikarainen, T., Krauss, S. & Lehtio, L. Tankyrases: structure, function and therapeutic implications in cancer. Curr Pharm Des 20, 6472-6488 (2014) and Mainil-Varlet, P. et al. Histological assessment of cartilage repair: a report by the Histology Endpoint Committee of the International Cartilage Repair Society (ICRS). J Bone Joint Surg Am 85-A Suppl 2, 45-57 (2003)) by three blinded observers.

In the case of `Cc1cc(/C=C2\SC(=O)N(c3ccccc3)C2=O)c(C)n1-c1cccnc1` [iCRT 1429], the “expression of cartilage matrisome” value ([1]; β-catenin inhibition in chondrocytes (FIG. 2e, f, g), iCRT 14 for 24 h) is reported as “did not significantly affect the expression of cartilage matrisome”.

`O=C(Nc1cccc2cccnc12)c1ccc(N2C(=O)C3C4C=CC(C4)C3C2=O)cc1` (centres unmarked) [IWR-1, 4-(1,3,3a,4,7,7a-Hexahydro-1,3-dioxo-4,7-methano-2H-isoindol-2-yl)-N-8-quinolinyl-Benzamide] was tested, and the chondrogenic nodule formation [2] was “effectively induced chondrogenic nodule formation”, the “enrichment of cartilage-signature genes in whole transcriptome (GSEA)” value (mouse chondrocytes) was “positively enriched” and the “degeneration of cartilage matrix caused by DMM (Safranin O staining, OARSI grade)” value [3] was “significant reduction in the degeneration of cartilage matrix”. For the same molecule, the “expression of cartilage-specific matrix genes” value [1] was “increased the expression of cartilage-specific matrix genes”.

In the case of `C[C@]1(c2nc3c(C(N)=O)cccc3[nH]2)CCCN1` [ABT-888], the “expression of cartilage-specific matrix genes” value [1] is reported as “failed to increase their expressions”.

`O=c1[nH]c(-c2ccc(C(F)(F)F)cc2)nc2c1CSCC2` [XAV939, 3,5,7,8-Tetrahydro-2-[4-(trifluoromethyl)phenyl]-4H-thiopyrano[4,3-d]pyrimidin-4-one] was tested, and the chondrogenic nodule formation [2] was “effectively induced chondrogenic nodule formation”, the “enrichment of cartilage-signature genes in whole transcriptome (GSEA)” value (mouse chondrocytes) was “positively enriched” and the “degeneration of cartilage matrix caused by DMM (Safranin O staining, OARSI grade)” value [3] was “significant reduction in the degeneration of cartilage matrix”. The “cartilage destruction in late-stage OA (Safranin O staining, OARSI grade)” value ([3]; treatment started 6 weeks after DMM surgery, for additional 6 weeks, compared with vehicle-treated mice) was “reduction in the cartilage destruction” and the “expression of cartilage-specific matrix genes” value [1] was “increased the expression of cartilage-specific matrix genes”.
